Structures are written as SMILES.

The nature of this data set: Human HepG2 cell viability assay in 384 well format. The class given is toxicity, cell-based. Also noted: dose 125 nL, time 70.5 hour; concentration not given beside the values. The note with it: HepG2 cells, read-out: Inhibition.
Turning to `CCN1CCN(S(=O)(=O)N2CCCCCC2)[C@H]2CS(=O)(=O)C[C@H]21`, the cytotoxicity at 70.5 h was 30%. As for `COc1cc(C2CC(=O)Nc3c2nc2n3CCCC2)cc(OC)c1O` (centres undefined), the cytotoxicity at 70.5 h was -5.3%. With `Cc1nn(C)c(C)c1C1COCCN1c1ncnc2c(C)cccc12` (centres undefined), the cytotoxicity at 70.5 h was -6.31%. The value for `O=C(CSC1CCCC1)N1CCN(c2ccc(-n3cncn3)nn2)CC1` was -2.51%. Regarding `NC(=O)C1CCCN(C(=O)c2cnc3c(cnn3C3CCCC3)c2)C1` (centres undefined), the cytotoxicity at 70.5 h stood at 33%. As for `O=C(CSCC1CC1)N1CCCN(Cc2ccc(F)cc2)CC1`, the cytotoxicity at 70.5 h was -11.1%.

As to `COCC(=O)N1CCOC2(CCCN(c3cnccn3)C2)C1` (centres undefined), the cytotoxicity at 70.5 h is -9.25%. For the compound `O=C(c1cc[nH]n1)N1CCC(c2cc(Nc3ccccn3)n[nH]2)CC1`, the cytotoxicity at 70.5 h was -8.04%. As for `Cc1cc(C(=O)NCC2CCC3(CC2)OCCO3)[nH]n1`, the cytotoxicity at 70.5 h is 1.56%. For the compound `CCc1noc(CC)c1CC(=O)N1CCC(C(=O)NC(C)C)CC1`, the cytotoxicity at 70.5 h was -3.58%.

As for `Cc1nc(CN(C)Cc2nc(-c3ccccc3)no2)co1`, the cytotoxicity at 70.5 h was -1.63%. In the case of `O=C1CC(c2ccc(C(=O)O)cc2)c2ncn(-c3cccnc3)c2N1` (centres undefined), the cytotoxicity at 70.5 h was -2.41%. On to `NC(=O)c1ccc(C2CCCN2C(=O)CCn2nnc3ccccc32)s1` (centres undefined), for which the cytotoxicity at 70.5 h is -4.98%.

Consider `Cc1ccc(NC2CCN(C(=O)c3cnc(C)s3)CC2)nn1`, for which the cytotoxicity at 70.5 h was -6.52%.

With `Cc1cncnc1C1CCN(CC(N)=O)CC1`, the cytotoxicity at 70.5 h was -4.96%. With `CC(C)c1ccccc1OCCNC(=O)N1CCC2(CC1)OCCO2`, the cytotoxicity at 70.5 h is -2.15%. On to `COCC1CC2(CCN(C(=O)c3ccco3)CC2)CN1C(C)C` (centres undefined), for which the cytotoxicity at 70.5 h was -13%. Consider `Cc1ccc(CN2CCOC3(COCCN(C(C)C)C3)C2)s1` (centres undefined), for which the cytotoxicity at 70.5 h came out at 18.3%. Regarding `CN(CC(F)(F)F)C(=O)CNC(=O)Cc1ccccc1O`, the cytotoxicity at 70.5 h worked out at 5.05%. With `O=c1c(NCCNCCO)c(N2CCN(Cc3ccccc3)CC2)c1=O`, the cytotoxicity at 70.5 h was -3.52%. Then `O=C(c1cnccn1)N1CCc2onc(CN3CCCC3)c2C1`, with 1.69%; and `Cc1cc(C2CCCN(C(=O)COc3ccc(F)cc3F)C2)n[nH]1` (centres undefined), with -4.95%.

As to `Cc1nc(NC(=O)NC(CS(C)(=O)=O)c2ccccc2)sc1C` (centres undefined), the cytotoxicity at 70.5 h is -11.5%. Consider `COCCNc1ccc(CC2CCCN(C3CCCC3)C2)nn1` (centres undefined), for which the cytotoxicity at 70.5 h was -4.76%. Regarding `COCCN1CCN(c2ncnc3nc(C)cc(C)c23)CC1`, the cytotoxicity at 70.5 h was -7.61%. As for `c1cnnc(N2CCCC(NCc3nc(-c4ccsc4)no3)C2)c1` (centres undefined), the cytotoxicity at 70.5 h is -0.51%.

Take `Cc1cccc(C(=O)N(CCCO)S(=O)(=O)c2cccs2)c1`: the cytotoxicity at 70.5 h was -0.969%. Regarding `COCCC1CCN([C@@H]2c3ccccc3C3(CCNCC3)[C@H]2O)CC1`, the cytotoxicity at 70.5 h is -3.9%. Take `Cc1ccccc1C(=O)NC[C@@H]1CCN(C(=O)c2cccn2C)C[C@H]1O`: the cytotoxicity at 70.5 h is -13%. As for `CC(NC(=O)c1cccc(CN2CCN(C)CC2)c1)c1ccccn1` (centres undefined), the cytotoxicity at 70.5 h turned out to be 0.178%. For `COc1ccccc1CNc1ncnc2c1NC(=O)CN2`, the cytotoxicity at 70.5 h was -6.12%. Take `CCCC(=O)N1CCCCC1c1nc(N(C)C)ncc1-c1cc(C)no1` (centres undefined): the cytotoxicity at 70.5 h is -2.48%. As for `Cc1ccc(CN2CCC3(CC2)CC3CN(C)Cc2cccnc2)o1` (centres undefined), the cytotoxicity at 70.5 h was -5.02%. Then `Cc1nn(C)c(C)c1C1CCCN1Cc1cccc(C(N)=O)c1` (centres undefined), with 4%; and `CC(C)CN1CC2(CCN(C(=O)C(O)c3cccc(Cl)c3)CC2)CC1=O` (centres undefined), with 1.55%.

Turning to `Cc1ccc(=O)n(CC2(O)CCN(Cc3ccsc3)CC2)n1`, the cytotoxicity at 70.5 h was -10.6%. With `COc1c(CNCC(O)c2ccccc2F)c(C(C)C)nn1C` (centres undefined), the cytotoxicity at 70.5 h was 21.4%. Regarding `Cc1cnc(CN(C)C2CCN(CCc3ccccn3)CC2)cn1`, the cytotoxicity at 70.5 h was found to be 14.7%. As to `CC(c1nc(C(C)(C)C)no1)N1CCN(CC(=O)N2CCOCC2)CC1` (centres undefined), the cytotoxicity at 70.5 h is -16.5%. Turning to `CCS(=O)(=O)N1CC[C@H]2OCC[C@@]2(C(=O)NC)C1`, the cytotoxicity at 70.5 h is -9.74%.

Turning to `OCCN1CCC2(CC1)CC(NCc1ccccn1)c1ccccc1O2` (centres undefined), the cytotoxicity at 70.5 h was -0.919%. As for `CC(C(=O)Nc1ncccn1)N1CCCN(c2nccs2)CC1` (centres undefined), the cytotoxicity at 70.5 h was -13.8%.

`NC(=O)CNC1(c2ccc(Br)cc2)CCOCC1`: the cytotoxicity at 70.5 h was found to be 22.4%. As to `O=C(Cn1cccc2cc(-c3ccc(F)cc3)nc1-2)N1CCC(O)CC1`, the cytotoxicity at 70.5 h stood at 3.41%. As for `CC(C)c1nn(C)c(N(C)C)c1CNCC(O)COc1ccccc1` (centres undefined), the cytotoxicity at 70.5 h was -3.95%.

For the compound `CCC(=O)c1ccc(Br)cc1NN1c2cc(Br)ccc2C(=O)C1(C)OC` (centres undefined), the cytotoxicity at 70.5 h turned out to be 13.3%. `Cn1cc(NC(=O)CNC(=O)N2CCN(c3ccc(F)cc3)CC2)cn1`: the cytotoxicity at 70.5 h was -2.76%. As to `Cc1ccsc1C(=O)NC1CCN(c2cnn(C)c2)C1=O` (centres undefined), the cytotoxicity at 70.5 h was found to be 17.9%.

Consider `COc1ccccc1OCCN1CCCC(c2cc(C(N)=O)[nH]n2)C1` (centres undefined), for which the cytotoxicity at 70.5 h is -9.71%. With `Cc1ccc(C)c(NC(=O)Cc2c(C)nc3c(c2C)c(=O)[nH]n3C)c1`, the cytotoxicity at 70.5 h came to 29.5%. Consider `CC(=O)c1cc(CN2C[C@@H](CN3CCC(O)CC3)[C@@H](CO)C2)n(C)c1`, for which the cytotoxicity at 70.5 h was 0.0676%.

As to `COc1ccccc1CC1CCCN1C(=O)c1cn[nH]c1C` (centres undefined), the cytotoxicity at 70.5 h was -4.05%.

In the case of `CCc1nnc2n1CCN(Cc1cccc3c1OCCO3)C2`, the cytotoxicity at 70.5 h was 21.6%. Turning to `CSc1ccc(CN2CCn3nc(CNC(C)=O)cc3C2)cc1`, the cytotoxicity at 70.5 h is -28.8%.

Regarding `Cc1csc(NC(=O)c2ccc(NC(=O)N3CCOCC3)cc2)n1`, the cytotoxicity at 70.5 h is 3.47%. Then `Cn1cc(CN2CCCC23CCN(c2nc4ccccc4s2)CC3)cn1`, with -4.41%; and `CCCc1noc(C(C)N2CC(n3cccn3)C2)n1` (centres undefined), with 6.9%. With `CN(C)Cc1cn(CC2CCCN(c3nccc4occc34)C2)nn1` (centres undefined), the cytotoxicity at 70.5 h is -14.2%. With `O=C(c1cccnc1)N1CCOC(c2ccc(-c3cncnc3)cn2)C1` (centres undefined), the cytotoxicity at 70.5 h is -0.513%. Take `CN(C)C(=O)COC1COC2(CCN(c3cnccn3)CC2)C1` (centres undefined): the cytotoxicity at 70.5 h came to 1.25%.

For `O=C(CN1CCCC1Cn1cncn1)Nc1nncs1` (centres undefined), the cytotoxicity at 70.5 h was determined as 14.3%.

`O=C(c1ccnnc1)N1C[C@@H]2CC[C@H](Oc3cccc(F)c3)[C@@H]2C1`: the cytotoxicity at 70.5 h is -0.575%.

For the compound `CCCn1nnnc1COc1ccc(C(=O)OC)cc1`, the cytotoxicity at 70.5 h is -11.5%. As for `CCc1cc(C(F)(F)F)n2nc(C3CCCN3C(=O)COC)cc2n1` (centres undefined), the cytotoxicity at 70.5 h is -4.23%. Consider `CN1CCc2c(C#N)c(NCCCN3CCOCC3)n3cnnc3c2C1`, for which the cytotoxicity at 70.5 h is -14.3%. For the compound `Cc1ocnc1C(=O)N1CCN(CCOc2ccccc2)CC1`, the cytotoxicity at 70.5 h was -10.4%.

Consider `CCN(CCO)Cc1ccc(Br)c2cccnc12`, for which the cytotoxicity at 70.5 h is -1.88%. In the case of `O=S(=O)(Cc1ccccc1)CC(O)Cn1cccn1` (centres undefined), the cytotoxicity at 70.5 h was -2.14%. Then `CCS(=O)(=O)N[C@H]1CN(CC(C)(C)N2CCOCC2)C[C@@H]1C1CC1`, with -18.9%; and `CC(C)S(=O)(=O)c1ccccc1C(=O)NCC1Cc2ccccc2O1` (centres undefined), with -1.85%; and `O=C([C@H]1CCCO1)N1CCN(CCn2cccn2)c2ncccc2C1`, with -5.29%.

Consider `O=C(NCCN1CCOCC1)c1ccc(-c2ccc(F)cc2)nc1O`, for which the cytotoxicity at 70.5 h is -3.89%.

In the case of `Cc1ccc(NC2CCN(C(=O)CCC3CCCO3)CC2)nn1` (centres undefined), the cytotoxicity at 70.5 h is -3.33%. Turning to `CCc1nc(CN2CCCN(CC(=O)N3CCOCC3)CC2)no1`, the cytotoxicity at 70.5 h turned out to be 41.7%. Consider `O=C(CCn1ncc2c(Cl)cccc21)NCC1CC1`, for which the cytotoxicity at 70.5 h is -5.33%.

As to `O=C([C@H]1C[C@H]2OCC[C@H]2N(Cc2ccoc2)C1)N1CCCCO1`, the cytotoxicity at 70.5 h was -6.32%. Regarding `O=C(C1=CCCC1)N1CCC[C@]2(C[C@@H](OCc3ccncc3)CO2)C1`, the cytotoxicity at 70.5 h is 0.64%. As for `C=Cn1ncc(CN2C[C@@H]3CCCN3C[C@H]2Cc2ccccc2)c1C`, the cytotoxicity at 70.5 h was determined as 14.6%.

On to `CN1CCN(Cc2cnn(-c3ccccc3Cl)c2)[C@H]2CS(=O)(=O)C[C@H]21`, for which the cytotoxicity at 70.5 h was -5.22%. For `Cc1nnc(NC(=O)C(C)n2ncc(Br)c2C)s1` (centres undefined), the cytotoxicity at 70.5 h is 24.3%. Then `O=C(COc1ccccc1)NCC1CC1`, with 9.36%; and `CN(C)Cc1nc(C(C)(C)NC(=O)C2CC(=O)N(CC3CC3)C2)no1` (centres undefined), with 19.5%; and `Cc1ccc(C(=O)NCC2COCCO2)c(=O)[nH]1` (centres undefined), with -17%. For the compound `Cc1cccc(-c2noc(CN3CC(n4cc(C)cn4)C3)n2)c1`, the cytotoxicity at 70.5 h was -5.31%. In the case of `O=c1[nH]nc(-c2cccs2)c2sc(N3CCOCC3)nc12`, the cytotoxicity at 70.5 h was -4.15%. Regarding `COc1cccc(S(=O)(=O)CCN2CCN(CCO)CC2)c1`, the cytotoxicity at 70.5 h is -2.82%. `Cc1cnn(C2CN(CC(O)c3ccccc3)C2)c1` (centres undefined): the cytotoxicity at 70.5 h was determined as 27.4%.

For the compound `O=C(Cc1ccc(F)cc1)NCCNc1cc(N2CCCC2)cnn1`, the cytotoxicity at 70.5 h came out at 30.6%. For `CC(CO)NS(=O)(=O)c1cccc(C(C)C)c1` (centres undefined), the cytotoxicity at 70.5 h is -9%. `COc1ccnc(NC(=O)c2cnccn2)c1`: the cytotoxicity at 70.5 h was -7.62%. `CCC(CC)C(=O)NCc1cn2cc(Br)ccc2n1`: the cytotoxicity at 70.5 h is -8.77%.

Consider `O=C(NC1CCN(c2ccccc2OC(F)F)C1)c1cccnc1` (centres undefined), for which the cytotoxicity at 70.5 h is -4.78%.

`CC(=O)c1ccc(-n2c(C)cn(CCC#N)c2=O)cc1`: the cytotoxicity at 70.5 h turned out to be 22.1%. Then `COc1ccc(Cn2cc(C(=O)N(C)Cc3ccon3)nn2)cc1`, with -3.92%; and `CCN(CC)S(=O)(=O)c1cnccc1N1CCN(C(C)C)CC1`, with 7.88%; and `Cc1[nH]ccc1C(=O)N1CCCC(c2nccn2Cc2cscn2)C1` (centres undefined), with 20.2%. Consider `Cc1ccc(NS(C)(=O)=O)c(C(=O)NCCC(=O)NC(C)C)c1`, for which the cytotoxicity at 70.5 h is -6.46%. Consider `O=C(C1CCCC1)N1CCC(c2ncc3c(n2)CCNC3)C1` (centres undefined), for which the cytotoxicity at 70.5 h was -5.84%. As for `COCCC1COC2(CCN(C(=O)Cc3ccccc3)CC2)C1` (centres undefined), the cytotoxicity at 70.5 h was -13.5%.

The values are drawn from ChEMBL document CHEMBL3507680, “University of Dundee, Gates Library screen for HepG2 cell viability”.
